Measured values as given in patent US20260041744A1, “Methods for Treating Pompe Disease” (Amicus Therapeutics, Inc., priority 2022, published 2026).
Several values for one entry are separate records, joined by “and”; a condition that tells them apart may be missing. Equal entries are not always repeated.

Columns and labels:
[1] = tested on: adults with Pompe disease; experiment: Study ATB200-02 (20 mg/kg cipaglucosidase alfa IV + 260 mg miglustat): 6MWT (6MWD, % predicted 6MWD); type: in vivo, human;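 also: Open-label Phase I/II trial, ambulatory cohorts only, values are changes from baseline or counts relative to the baseline walk test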
Description: The change from baseline (CFBL) in 6MWD, % predicted sitting FVC, manual muscle test (MMT) and biomarkers—urine glucose tetrasaccharide (Hex4) and serum creatine kinase (CK)—were assessed at regular intervals.
The 4 cohorts in the study are as follows: • Cohort 1: ERT-experienced (2 to 6 years) ambulatory subjects (11 subjects) • Cohort 2: ERT-experienced (≥2 years) non-ambulatory subjects (6 subjects) • Cohort 3: ERT-naïve ambulatory subjects (6 subjects)· • Cohort 4: ERT-experienced (≥7 years) ambulatory subjects (6 subjects)
In Study ATB200-02, motor function was evaluated in all ambulatory subjects (ie, Cohorts 1, 3, and 4) (Table 23, FIGS. 46A-46D).

[2] = tested on: adults with Pompe disease; experiment: Study ATB200-02: manual muscle test (MMT lower extremity, upper body, total); type: in vivo, human; conditions: for MMT total score (upper body) change from baseline, mean: Cohort 2 (non-ambulatory ERT-experienced)
Description: Results for lower extremity MMT are shown in Table 25 and FIGS. 48A and 48B.

[3] = Study ATB200-02: safety (TEAEs); conditions: in vivo
Description: Mean (SD) duration of treatment was 37.2 (14.48), 19.9 (4.13) and 36.9 (12.14) months in cohorts 1 (prior ERT 2-6 years), 4 (prior ERT ≥7 years) and 3 (ERT naive), respectively.
Mean (SD) duration of treatment was 46.3 (22.86) months.

[4] = tested on: adult subjects with Pompe disease; experiment: Pooled Studies ATB200-02/03/07: GSGC total score by exposure interval
Description: The pooled efficacy analyses presented within this section include the outlier (Pool 2). […] Pooled efficacy analyses excluding the outlier subject (Pool 2A) were also performed.
Note that a negative score indicates an improvement.

[5] = parameters: species or system human; conditions: in vivo
Description: Concomitant medications and nondrug therapies were also be recorded. […] Safety Analyses. Safety data was summarized using counts and percentages for categorical data and descriptive statistics (mean, standard deviation, median, minimum, maximum) for continuous data.

[6] = tested on: subjects with late-onset Pompe disease (LOPD); conditions: systematic review, 368 LOPD subjects (Toscano and Schoser); cited from earlier work
[7] = Ambulatory ERT-experienced, 12 months
[8] = Ambulatory ERT-experienced, 24 months
[9] = Ambulatory ERT-experienced, 36 months
[10] = Ambulatory ERT-experienced, 48 months
[11] = Ambulatory ERT-naïve, 12 months
[12] = Ambulatory ERT-naïve, 24 months
[13] = Ambulatory ERT-naïve, 36 months
[14] = Ambulatory ERT-naïve, 48 months
[15] = Cohort 1 + Cohort 3 + Cohort 4, Month 12
[16] = Cohort 1 + Cohort 3 + Cohort 4, Month 24
[17] = Cohort 1 + Cohort 3 + Cohort 4, Month 36
[18] = Cohort 1 + Cohort 3 + Cohort 4, Month 48
[19] = Non-ambulatory ERT-experienced, 12 months
[20] = Non-ambulatory ERT-experienced, 24 months
[21] = Non-ambulatory ERT-experienced, 36 months

ATB200/miglustat: two-component therapy: cipaglucosidase alfa (ATB200) administered in conjunction with miglustat (AT2221), a stabilizer of cipaglucosidase alfa
motor function by 6MWT ([1]; 48 months, Cohorts 1, 3, 4): clinically meaningful improvements in motor function as measured by the 6MWT
6MWD, CFBL mean [1, 7]: 33.5 meters
Percent predicted 6MWD, CFBL mean [1, 7]: 6.1
6MWD, CFBL mean [1, 8]: 25.2 meters
Percent predicted 6MWD, CFBL mean [1, 8]: 5.4
6MWD, CFBL mean [1, 9]: 9.8 meters
Percent predicted 6MWD, CFBL mean [1, 9]: 3.4
6MWD, CFBL mean [1, 10]: 20.7 meters
Percent predicted 6MWD, CFBL mean [1, 10]: 5.9
6MWD, CFBL mean [1, 11]: 57.0 meters
Percent predicted 6MWD, CFBL mean [1, 11]: 10.7
6MWD, CFBL mean [1, 12]: 54.4 meters
Percent predicted 6MWD, CFBL mean [1, 12]: 11.0
6MWD, CFBL mean [1, 13]: 43.5 meters
Percent predicted 6MWD, CFBL mean [1, 13]: 9.0
6MWD, CFBL mean [1, 14]: 52.2 meters
Percent predicted 6MWD, CFBL mean [1, 14]: 11.7
6MWD change from baseline, mean [1, 15]: 39.9 meters
6MWD change from baseline, median [1, 15]: 27.4 meters
6MWD change from baseline, mean [1, 16]: 34.4 meters
6MWD change from baseline, median [1, 16]: 22.6 meters
6MWD change from baseline, mean [1, 17]: 19.7 meters
6MWD change from baseline, median [1, 17]: 24.2 meters
6MWD change from baseline, mean [1, 18]: 30.4 meters
6MWD change from baseline, median [1, 18]: 27.0 meters
6MWD change from baseline, mean ([1]; Cohort 1 + Cohort 4 (ERT-experienced), Month 12, listed as cipaglucosidase alfa/miglustat): 33 meters and 33.5 meters
6MWD change from baseline, mean ([1]; Cohort 1 + Cohort 4 (ERT-experienced), Month 24, listed as cipaglucosidase alfa/miglustat): 25 meters and 25.2 meters
6MWD change from baseline, mean ([1]; Cohort 1 + Cohort 4 (ERT-experienced), Month 36, listed as cipaglucosidase alfa/miglustat): 9.8 meters
6MWD change from baseline, mean ([1]; Cohort 1 + Cohort 4 (ERT-experienced), Month 48, listed as cipaglucosidase alfa/miglustat): 20 meters and 20.7 meters
6MWD change from baseline, median ([1]; Cohort 1 + Cohort 4, Month 12): 20.6 meters
6MWD change from baseline, median ([1]; Cohort 1 + Cohort 4, Month 24): 18.5 meters
6MWD change from baseline, median ([1]; Cohort 1 + Cohort 4, Month 36): 11.6 meters
6MWD change from baseline, median ([1]; Cohort 1 + Cohort 4, Month 48): 27.0 meters
6MWD change from baseline, mean ([1]; Cohort 3 (ERT-naïve), Month 12, listed as cipaglucosidase alfa/miglustat): 57 meters and 57.0 meters
6MWD change from baseline, mean ([1]; Cohort 3 (ERT-naïve), Month 24, listed as cipaglucosidase alfa/miglustat): 54 meters and 54.4 meters
6MWD change from baseline, mean ([1]; Cohort 3 (ERT-naïve), Month 36, listed as cipaglucosidase alfa/miglustat): 43 meters and 43.5 meters
6MWD change from baseline, mean ([1]; Cohort 3 (ERT-naïve), Month 48, listed as cipaglucosidase alfa/miglustat): 52 meters and 52.2 meters
6MWD change from baseline, median ([1]; Cohort 3, Month 12): 55.6 meters
6MWD change from baseline, median ([1]; Cohort 3, Month 24): 49.0 meters
6MWD change from baseline, median ([1]; Cohort 3, Month 36): 59.0 meters
6MWD change from baseline, median ([1]; Cohort 3, Month 48): 40.5 meters
patients whose 6MWD improved numerically from baseline (n/N) ([1]; ERT-experienced, 12 months): 13/16
patients whose 6MWD improved numerically from baseline (n/N) ([1]; ERT-experienced, 24 months): 9/13
patients whose 6MWD improved numerically from baseline (n/N) ([1]; ERT-experienced, 36 months): 6/12
patients whose 6MWD improved numerically from baseline (n/N) ([1]; ERT-experienced, 48 months): 6/9
patients with improvement from baseline in mean % predicted 6MWD ([1]; ERT-experienced, Month 48): 88.9%
patients whose 6MWD improved numerically from baseline (n/N) ([1]; ERT-naïve, 12 months): 6/6
patients whose 6MWD improved numerically from baseline (n/N) ([1]; ERT-naïve, 24 months): 6/6
patients whose 6MWD improved numerically from baseline (n/N) ([1]; ERT-naïve, 36 months): 4/5
patients whose 6MWD improved numerically from baseline (n/N) ([1]; ERT-naïve, 48 months): 4/4
patients with improvement from baseline in mean % predicted 6MWD ([1]; ERT-naïve, Month 48): 100%
muscle strength by MMTs and QMTs ([2]; 48 months): stable or improved muscle strength in the lower and upper extremities and proximal muscle groups
Lower body MMT score, CFBL mean [2, 7]: 3.1
Total MMT score, CFBL mean [2, 7]: 4.3
Upper body MMT score, CFBL mean [2, 7]: 1.3
Lower body MMT score, CFBL mean [2, 8]: 2.1
Total MMT score, CFBL mean [2, 8]: 2.5
Upper body MMT score, CFBL mean [2, 8]: 0.5
Lower body MMT score, CFBL mean [2, 9]: 2.5
Total MMT score, CFBL mean [2, 9]: 3.6
Upper body MMT score, CFBL mean [2, 9]: 0.8
Lower body MMT score, CFBL mean [2, 10]: 3.5
Total MMT score, CFBL mean [2, 10]: 4.0
Upper body MMT score, CFBL mean [2, 10]: 0.5
Lower body MMT score, CFBL mean [2, 11]: 2.8
Total MMT score, CFBL mean [2, 11]: 2.4
Upper body MMT score, CFBL mean [2, 11]: 0.0
Lower body MMT score, CFBL mean [2, 12]: 3.0
Total MMT score, CFBL mean [2, 12]: 2.0
Upper body MMT score, CFBL mean [2, 12]: −1.5
Lower body MMT score, CFBL mean [2, 13]: (3.3
Total MMT score, CFBL mean [2, 13]: 3.5
Upper body MMT score, CFBL mean [2, 13]: 1.0
Lower body MMT score, CFBL mean [2, 14]: (1.0)
Total MMT score, CFBL mean [2, 14]: −1.3
Upper body MMT score, CFBL mean [2, 14]: −1.4
MMT (total score) CFB, mean ([2]; Cohort 1 + Cohort 3 + Cohort 4, 24-mo): 2.4
MMT (total score) CFB, mean ([2]; Cohort 1 + Cohort 3 + Cohort 4, 48-mo): 2.3
MMT lower extremity score change from baseline, mean [2, 15]: 3.0
MMT lower extremity score change from baseline, median [2, 15]: 3.0
MMT lower extremity score change from baseline, mean [2, 16]: 2.3
MMT lower extremity score change from baseline, median [2, 16]: 2.0
MMT lower extremity score change from baseline, mean [2, 17]: 2.7
MMT lower extremity score change from baseline, median [2, 17]: 2.0
MMT lower extremity score change from baseline, mean [2, 18]: 2.7
MMT lower extremity score change from baseline, median [2, 18]: 3.0
MMT (total score) CFB, mean ([2]; Cohort 1 + Cohort 4 (ERT-experienced), 24-mo): 2.5
MMT (total score) CFB, mean ([2]; Cohort 1 + Cohort 4 (ERT-experienced), 48-mo): 4.0
MMT lower extremity score change from baseline, mean ([2]; Cohort 1 + Cohort 4 (ERT-experienced), Month 12): 3.1 pts
MMT lower extremity score change from baseline, mean ([2]; Cohort 1 + Cohort 4 (ERT-experienced), Month 24): 2.1 pts
MMT lower extremity score change from baseline, mean ([2]; Cohort 1 + Cohort 4 (ERT-experienced), Month 36): 2.5 pts
MMT lower extremity score change from baseline, mean ([2]; Cohort 1 + Cohort 4 (ERT-experienced), Month 48): 3.5 pts
MMT lower extremity score change from baseline, median ([2]; Cohort 1 + Cohort 4, Month 12): 2.0
MMT lower extremity score change from baseline, median ([2]; Cohort 1 + Cohort 4, Month 24): 2.0
MMT lower extremity score change from baseline, median ([2]; Cohort 1 + Cohort 4, Month 36): 1.5
MMT lower extremity score change from baseline, median ([2]; Cohort 1 + Cohort 4, Month 48): 3.0
MMT total score (upper body) change from baseline, mean ([2]; month 12): +1.3 pts
MMT total score (upper body) change from baseline, mean ([2]; month 24): +2.0 pts
MMT total score (upper body) change from baseline, mean ([2]; month 36): −0.8 pts
MMT (total score) CFB, mean ([2]; Cohort 3 (ERT-naïve), 24-mo): 2.0
MMT (total score) CFB, mean ([2]; Cohort 3 (ERT-naïve), 48-mo): −1.3
MMT lower extremity score change from baseline, mean ([2]; Cohort 3 (ERT-naïve), Month 12): 2.8 pts
MMT lower extremity score change from baseline, mean ([2]; Cohort 3 (ERT-naïve), Month 24): 3.0 pts
MMT lower extremity score change from baseline, mean ([2]; Cohort 3 (ERT-naïve), Month 36): 3.3 pts
MMT lower extremity score change from baseline, mean ([2]; Cohort 3 (ERT-naïve), Month 48): 1.0 pts
MMT lower extremity score change from baseline, median ([2]; Cohort 3, Month 12): 4.0
MMT lower extremity score change from baseline, median ([2]; Cohort 3, Month 24): 3.0
MMT lower extremity score change from baseline, median ([2]; Cohort 3, Month 36): 3.5
MMT lower extremity score change from baseline, median ([2]; Cohort 3, Month 48): 2.0
patients whose MMT lower extremity score improved numerically from baseline (n/N) ([2]; ERT-experienced ambulatory, 12 months): 14/15
patients whose MMT lower extremity score improved numerically from baseline (n/N) ([2]; ERT-experienced ambulatory, 24 months): 11/13
patients whose MMT lower extremity score improved numerically from baseline (n/N) ([2]; ERT-experienced ambulatory, 36 months): 10/10
patients whose MMT lower extremity score improved numerically from baseline (n/N) ([2]; ERT-experienced ambulatory, 48 months): 8/8
patients whose MMT lower extremity score improved numerically from baseline (n/N) ([2]; ERT-naïve, 12 months): 4/5
patients whose MMT lower extremity score improved numerically from baseline (n/N) ([2]; ERT-naïve, 24 months): 4/5
patients whose MMT lower extremity score improved numerically from baseline (n/N) ([2]; ERT-naïve, 36 months): 4/4
patients whose MMT lower extremity score improved numerically from baseline (n/N) ([2]; ERT-naïve, 48 months): 3/4
Total MMT score, CFBL mean [2, 19]: 1.3
Upper body MMT score, CFBL mean [2, 19]: 1.3
Total MMT score, CFBL mean [2, 20]: 2.0
Upper body MMT score, CFBL mean [2, 20]: 2.0
Total MMT score, CFBL mean [2, 21]: −0.8
Upper body MMT score, CFBL mean [2, 21]: −0.8
TEAE profile / tolerability [3]: most TEAEs were mild or moderate in severity and did not lead to study withdrawal
mean (SD) change from baseline in GSGC total score ([4]; exposure >15 to ≤24 months (n=87)): -0.86 (3.086)
mean (SD) change from baseline in GSGC total score ([4]; exposure >24 months (n=56)): −1.12 (3.586)
mean (SD) change from baseline in GSGC total score ([4]; exposure ≤15 months (n=123), negative = improvement): -0.51 (2.947)

alglucosidase alfa [reference compound]
participants with infusion (injection) associated reactions (IARs) [5]: 26%
patients who discontinued treatment due to an adverse event [5]: 2.6%
subjects without initial improvement during treatment [6]: > 30%
